{"source": "paper PMC7017082", "about": "“Tivantinib, A c-Met Inhibitor in Clinical Trials, Is Susceptible to ABCG2-Mediated Drug Resistance” (Cancers, 2020)", "target": "T1, ABCG2 (ATP-binding cassette super-family G member 2, BCRP) (Homo sapiens, UniProt Q9UNQ0)", "T1 construct": "ABCG2 in insect cell membrane vesicles", "T1 sequence (Q9UNQ0 1-655)": "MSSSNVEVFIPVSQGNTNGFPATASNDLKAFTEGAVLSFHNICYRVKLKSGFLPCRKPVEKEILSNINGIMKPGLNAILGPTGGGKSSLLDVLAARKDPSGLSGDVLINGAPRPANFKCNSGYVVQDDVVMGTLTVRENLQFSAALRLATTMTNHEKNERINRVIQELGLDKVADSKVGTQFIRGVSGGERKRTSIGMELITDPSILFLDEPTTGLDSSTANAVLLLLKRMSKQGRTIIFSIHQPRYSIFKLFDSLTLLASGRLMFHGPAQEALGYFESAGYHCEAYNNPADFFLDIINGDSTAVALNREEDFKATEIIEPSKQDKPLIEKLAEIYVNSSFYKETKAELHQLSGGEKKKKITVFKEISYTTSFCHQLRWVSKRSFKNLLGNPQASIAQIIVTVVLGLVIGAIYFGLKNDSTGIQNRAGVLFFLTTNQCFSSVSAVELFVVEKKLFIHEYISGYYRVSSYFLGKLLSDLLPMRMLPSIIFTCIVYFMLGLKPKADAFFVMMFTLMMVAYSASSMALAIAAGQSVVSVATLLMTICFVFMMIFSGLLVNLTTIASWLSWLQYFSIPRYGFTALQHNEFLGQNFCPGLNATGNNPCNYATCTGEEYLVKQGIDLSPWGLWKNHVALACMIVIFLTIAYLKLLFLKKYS", "experiment": "biochemical"}
{"smiles": "O=C1NC(=O)[C@@H](c2cn3c4c(cccc24)CCC3)[C@@H]1c1c[nH]c2ccccc12", "note": "[Tivantinib]", "values": [{"measurement": "EC50", "value": 6.76, "unit": "µM"}]}
